Measurements as given in patent US20090209527A1, “Methods for Using Rapamycin Analogues in the Treatment of Neurological Disorders” (Wyeth, priority 2008, published 2009).
Like-named read-outs stand apart in the source and are kept apart here.

Experiments:
[1] = system: Mesencephalic dopaminergic neuron cultures; test: Dopaminergic uptake assay (3H-dopamine uptake after MPP+ exposure); type: cell-based, rat; details: read-out: EC50 in dopaminergic uptake assays
Procedure: Mesencephalic dopaminergic neuron cultures were prepared as described in Pong et al., J. Neurochem. 69: 986-994, 1997, which is incorporated herein by reference in its entirety. Embryonic day 15 (E15) rat fetuses were collected and dissected in ice-cold phosphate-buffered saline (PBS). The ventral piece of tissue compromising the mesencephalic dopaminergic region was dissected out. Dissected pieces of tissue were pooled together and transferred to an enzymatic dissociation medium containing 20 IU/mL papain in Earle's balanced salt solution (Worthington Biochemical, Freehold, N.J., USA) and incubated for 60 minutes at 37° C. After enzymatic dissociation, the papain solution was aspirated and the tissue mechanically triturated with a fire-polished glass Pasteur pipette in complete medium (equal volumes of minimum essential medium (MEM) and F-12 nutrient mixture (GibcoBRL) supplemented with 0.1 mg/mL apotransferrin and 2.5 μg/mL insulin) containing 2,000 IU/mL DNase and 10 mg/mL ovomucoid protease inhibitor.
For dopamine uptake experiments, single-cell suspensions in complete media were seeded on poly-L-ornithine and laminin coated 24-well plates. The cultures were maintained for seven days prior to experimentation. […]
After 48 hours growth of mesencephalic dopaminergic neuron cultures following MPP+ exposure, high-affinity 3H-dopamine uptake was performed using a modified method described by Prochiantz et al., Nature 293: 570-572, 1981, which is incorporated herein by reference. Cultures were washed with pre-warmed PBS containing 5.6 mM glucose and 1 mM ascorbic acid. Cultures were then incubated for 15 minutes at 37° C. with 50 nM 3H-dopamine (31 Ci/mmol, DuPont-NEN, Wilmington, Del., USA). The cultures were washed twice with buffer and lysed with 0.5N NaOH. The lysate was transferred to a scintillation vial containing Ultima Gold scintillation cocktail and radioactivity was determined with a liquid scintillation counter. Alternatively, culture lysates can be washed twice with buffer, incubated for 2 hours at room temperature with Optiphase Supermix scintillation cocktail (Wallac Scintillation Products, Gaithersburg, Md., USA), and radioactivity measured with a liquid scintillation counter.

cortical neuron cultures = test: Cortical neuron assay (neurite outgrowth in dissociated cortical neuron cultures); type: cell-based, rat; details: Rattus norvegicus, Cortical neurone; 72 hours treatment, neurite outgrowth; read-out: EC50 in cortical neuron assays
Procedure: Dissociated cortical neuron cultures were prepared as previously described (Liu et al., Screening of Immunophilin Ligands by Quantitative Analysis of Neurofilament Expression and Neurite Outgrowth in Cultured Neurons and Cells, J. Neurosci. Methods, 2007 Jul. 30; 163(2):310-20).
Briefly, embryonic day 15 rat fetuses were collected and dissected in ice-cold PBS. Dissected cortices were pooled together and transferred to an enzymatic dissociation medium containing papain. After 30 minutes, the tissue was mechanically triturated with a fire-polished glass Pasteur pipette. Single-cell suspensions in complete media were seeded on poly-L-ornithine and laminin coated 96-well plates. After 24 hours, cultures were treated with various concentrations of compound for 72 hours. The cultures were then fixed and stained with an anti-tubulin primary antibody (TUJ-1) and a fluorescent-tagged secondary antibody. Neurite outgrowth was determined by using the Enhanced Neurite Outgrowth (ENO) algorithm with the Cellomics ArrayScan and expressed as average neurite length or total neurite length per cell.

[2] = system: Spinal cord neuron cultures; test: Spinal cord neuron assay; type: cell-based; details: Rattus norvegicus, 72 hours treatment, read-out: EC50 in spinal cord neuron assays
Procedure: Spinal cord neuron cultures were prepared from embryonic day 15 (E15) rat embryos (Liu et al., Screening of Immunophilin Ligands by Quantitative Analysis of Neurofilament Expression and Neurite Outgrowth in Cultured Neurons and Cells, J. Neurosci. Methods, 2007 Jul. 30; 163(2):310-20). The embryos were collected and their spinal cords were removed in ice-cold phosphate-buffered saline (PBS) without Ca^2+ and Mg^2+. Dissected pieces of spinal cord tissue were pooled together and transferred to an enzymatic dissociation media containing 20 IU/mL papain in Earle's balanced salt solution (Worthington Biochemical, Freehold, N.J.) and incubated for 30 minutes at 37° C. After enzymatic dissociation, the papain solution was aspirated and the tissue mechanically triturated with a fire-polished Pasteur pipette in complete media [Neurobasal Medium with B-27 supplement (Gibco, Grand Island, N.Y.), 100 IU/mL penicillin, 100 µg/mL streptomycin, […] aphidicolin, 0.5 mM glutamate] containing 2,000 IU/mL DNase and 10 mg/mL ovomucoid protease inhibitor. Single-cell suspensions in complete media were plated on pre-coated poly-L-ornithine/laminin 96-well plates (Becton-Dickinson, Bedford, Mass.) at a density of 1.0×10^4 cells/well. Spinal cord neurons were maintained for 24 hours then exposed to vehicle or various concentrations of compound for 72 hours.

Row | Molecule | EC50 ([1]; Rattus norvegicus, Neuron) | EC50 (cortical neuron cultures) | EC50 [1] | EC50 [2]
1 | CO[C@H]1C[C@@H]2CC[C@@H](C)[C@@](O)(O2)C(=O)C(=O)N2CCCC[C@H]2C(=O)O[C@H]([C@H](C)C[C@@H]2CC[C@@H](O)[C@H](OC)C2)CC(=O)[C@H](C)/C=C(\C)[C@@H](O)[C@@H](OC)C(=O)[C@H](C)C[C@H](C)/C=C/C=C/C=C/1C [rapamycin] | > 1000 nM | > 1000 nM |  | 
2 | Rapamycin phenyltriazolinedione |  |  | < 1000 nM | 
3 | CO[C@H]1C[C@@H]2CC[C@@H](C)[C@@](O)(O2)C(=O)C(=O)N2CCCC[C@H]2C(=O)O[C@H]([C@H](C)C[C@@H]2CC[C@@H](OC(=O)C(C)(CO)CO)[C@H](OC)C2)CC(=O)[C@H](C)/C=C(\C)[C@@H](O)[C@@H](OC)C(=O)[C@H](C)C[C@H](C)/C=C/C=C/C=C/1C [CCI-779, reference compound] | > 1000 nM | > 1000 nM |  | 
4 | CO[C@H]1C[C@@H]2CC[C@@H](C)[C@@](O)(O2)C(=O)C(=O)N2CCCC[C@H]2C(=O)O[C@H]([C@H](C)C[C@@H]2CC[C@@H](O)[C@H](OC)C2)CC(=O)[C@H](C)/C=C(\C)[C@@H](O)[C@@H](OC)C(=O)[C@H](C)C[C@H](C)C2C=CC(/C=C/1C)ON2c1c(Cl)cccc1Cl [Example 3] |  | < 1000 nM |  | < 1000 nM
5 | CO[C@H]1C[C@@H]2CC[C@@H](C)[C@@](O)(O2)C(=O)C(=O)N2CCCC[C@H]2C(=O)O[C@H]([C@H](C)C[C@@H]2CC[C@@H](O)[C@H](OC)C2)CC(=O)[C@H](C)/C=C(\C)[C@@H](O)[C@@H](OC)C(=O)[C@H](C)C[C@H](C)[C@@H]2C=C[C@H](/C=C/1C)ON2c1ccccc1 [Example 1, 9,27-dihydroxy-3-{2-[4-hydroxy-3-methoxycyclohexyl]-1-methylethyl}-10,21-dimethoxy-6,8,12,14,20,26-hexamethyl-37-phenyl-4,9,10,12,13,14,15,18,21,22,23,24,25,26,27,32,33,34,34a-nonadecahydro-3H-23,27-epoxy-18,15-(epoxyimino)pyrido[2,1-c][1,4]oxazacyclohentriacontine-1,5,11,28,29(6H,31H)-pentone] | < 1000 nM | < 1000 nM |  | < 1000 nM
6 | CO[C@H]1C[C@@H]2CC[C@@H](C)[C@@](O)(O2)C(=O)C(=O)N2CCCC[C@H]2C(=O)O[C@H]([C@H](C)C[C@@H]2CC[C@@H](OC(=O)C(C)(C)Cc3ccccn3)[C@H](OC)C2)CC(=O)[C@H](C)/C=C(\C)[C@@H](O)[C@@H](OC)C(=O)[C@H](C)C[C@H](C)C2C=CC(/C=C/1C)ON2c1ccccc1 [Example 6, 9,27-dihydroxy-3-{-2-[4-hydroxy-3-methoxycyclohexyl]-1-methylethyl}-10,21-dimethoxy-6,8,12,14,20,26-hexamethyl-37-phenyl-4,9,10,12,13,14,15,18,21,22,23,24,25,26,27,32,33,34,34a-nonadecahydro-3H-23,27-epoxy-18,15-(epoxyimino) pyrido[2,1-c][1,4]oxazacyclohentriacontine-1,5,11,28,29(6H,31H)-pentone ester with-2,2-dimethyl-3′-(pyridin-2-yl)-propionic acid] | < 1000 nM |  |  | < 1000 nM
